# From US9737535B2, “Methods for treating cancer using TOR kinase inhibitor combination therapy comprising administering substituted pyrazino[2,3-b]pyrazines” (Signal Pharmaceuticals, LLC, priority 2014, dated 2017)
# Structures can show the parent of a compound that is named as a salt.
# Key:
# Assay in all cases: Anti-proliferation assay (ATPLite), Chalice synergy score
# Format in all cases: cell-based
# [1] = tested on: BT-20; design: scale not given here; conditions: Compound 1 in combination with the named second active agent, 72 h, mean of n = 3 experiments in triplicate
# Excerpt: (§1) Cells were thawed from a liquid nitrogen preserved state.
# (§2) The calculation for synergy score is provided below.
# (§3) If T≧V0:100*[1−(T−V0)/(V−V0)]
# [2] = tested on: HCC-1187; design: scale not given here; conditions: Compound 1 in combination with the named second active agent, 72 h, mean of n = 3 experiments in triplicate
# Excerpt: as §1, §2, §3
# [3] = tested on: HCC-1500; design: scale not given here; conditions: Compound 1 in combination with the named second active agent, 72 h, mean of n = 3 experiments in triplicate
# Excerpt: as §1, §2, §3
# [4] = tested on: BT-474; conditions: Compound 1 in combination with the named second active agent, 72 h, mean of n = 3 experiments in triplicate
# Excerpt: as §1, §2, §3
# [5] = tested on: HCC-1428; conditions: Compound 1 in combination with the named second active agent, 72 h, mean of n = 3 experiments in triplicate
# Excerpt: as §1, §2, §3
# [6] = tested on: HCC-1806; conditions: Compound 1 in combination with the named second active agent, 72 h, mean of n = 3 experiments in triplicate
# Excerpt: as §1, §2, §3
# [7] = tested on: HCC-1937; conditions: Compound 1 in combination with the named second active agent, 72 h, mean of n = 3 experiments in triplicate
# Excerpt: as §1, §2, §3
# [8] = tested on: HCC70; conditions: Compound 1 in combination with second active agent; HCC-70; mean self-cross + 2σ threshold 3.45
# Excerpt: as §1, §2, §3
# [9] = tested on: Hs-578-T; conditions: Compound 1 in combination with second active agent, mean self-cross + 2σ threshold 4.09
# Excerpt: as §1, §2, §3
# [10] = tested on: MCF7; conditions: Compound 1 in combination with second active agent, mean self-cross + 2σ threshold 3.07
# Excerpt: as §1, §2, §3
# [11] = tested on: MDA-MB-157; conditions: Compound 1 in combination with second active agent, mean self-cross + 2σ threshold 4.68
# Excerpt: as §1, §2, §3
# [12] = tested on: MDA-MB-231; conditions: Compound 1 in combination with second active agent, mean self-cross + 2σ threshold 2.61
# Excerpt: as §1, §2, §3
# [13] = tested on: MDA-MB-436; conditions: Compound 1 in combination with second active agent, mean self-cross + 2σ threshold 1.91
# Excerpt: as §1, §2, §3
# [14] = tested on: MDA-MB-468; conditions: Compound 1 in combination with second active agent, mean self-cross + 2σ threshold 4.66
# Excerpt: as §1, §2, §3
# [15] = tested on: BT-549; conditions: Compound 1 in combination with the named second active agent, 72 h, mean of n = 3 experiments in triplicate
# Excerpt: as §1, §2, §3
SMILES,Synergy score [1],Synergy score [2],Synergy score [3],Synergy score [4],Synergy score [5],Synergy score [6],Synergy score [7],Synergy score [8],Synergy score [9],Synergy score [10],Synergy score [11],Synergy score [12],Synergy score [13],Synergy score [14],Synergy score [15]
CCN(CCO)CCCOc1ccc2c(Nc3cc(CC(=O)Nc4cccc(F)c4)[nH]n3)ncnc2c1 [AZD1152-HQPA (Barasertib)],6.90,6.69,5.73,1.51,1.95,1.32,2.29,,,,,,,,
CCN(CCO)CCCOc1ccc2c(Nc3cc(CC(=O)Nc4cccc(F)c4)[nH]n3)ncnc2c1 [AZD1152-HQPA(Barasertib)],,,,,,,,9.50,2.43,2.57,1.81,1.42,5.60,9.13,
CC[C@@H]1C(=O)N(C)c2cnc(Nc3ccc(C(=O)NC4CCN(C)CC4)cc3OC)nc2N1C1CCCC1 [BI 2536],5.18,3.28,4.47,9.25,,0.43,16.20,12.60,4.48,3.30,5.08,2.92,2.95,9.61,6.91
O=C(/C=C/c1cccc(S(=O)(=O)Nc2ccccc2)c1)NO [Belinostat],,,,,,,,10.10,7.48,7.66,7.58,12.40,7.84,6.75,
O=C(NC(NC(=S)Nc1ccc(F)c([N+](=O)[O-])c1)C(Cl)(Cl)Cl)C(c1ccccc1)c1ccccc1 (stereo not drawn) [CGK733],0.72,2.01,0.55,,0.82,1.51,1.48,3.03,2.45,0.66,1.88,1.64,0.84,,1.74
N#Cc1c(O)c2c(-c3ccc(-c4ccccc4O)cc3)csc2[nH]c1=O [Compound A769662],0.11,3.70,0.80,,0.34,0.54,0.07,0.07,0.39,0.46,0.70,0.17,0.06,0.77,0.29
C[C@@H](Oc1cc(-c2cnn(C3CCNCC3)c2)cnc1N)c1c(Cl)ccc(F)c1Cl [Crizotinib],2.70,2.32,,1.07,,3.08,2.90,3.31,,3.06,2.97,,1.30,,0.94
"COc1cccc2c1C(=O)c1c(O)c3c(c(O)c1C2=O)C[C@@](O)(C(=O)CO)C[C@@H]3O[C@H]1C[C@H](N)[C@H](O)[C@H](C)O1 [Doxorubicin Hcl, Doxorubicin HCl]",3.96,4.45,2.70,1.25,0.96,3.55,6.92,4.00,5.85,,8.50,,3.89,6.36,4.78
O=C(/C=C/c1cccnc1)NCCCCC1CCN(C(=O)c2ccccc2)CC1 [FK-866],0.30,0.25,1.15,0.60,0.20,0.00,0.60,0.30,5.32,0.04,,,0.97,0.28,0.11
CC1=C(C(=O)Nc2cc3cn[nH]c3cc2F)C(c2ccc(C(F)(F)F)cc2)CC(=O)N1 (stereo not drawn) [GSK429286A],,4.54,0.19,,,0.51,0.05,,3.35,0.19,1.95,2.14,0.57,0.13,1.72
Nc1ccn([C@@H]2O[C@H](CO)[C@@H](O)C2(F)F)c(=O)n1 [Gemcitabine Hydrochloride],1.85,1.83,3.72,0.17,,0.84,3.78,,0.96,0.38,2.53,2.51,3.05,5.52,1.86
C[C@@H]1CN(CC(=O)Nc2ccc3c(c2)Cc2cccc(-c4cc(=O)cc(N5CCOCC5)o4)c2S3)C[C@H](C)O1 [KU-60019],0.05,1.24,0.98,,0.11,0.38,0.04,0.21,0.11,0.04,0.13,0.08,0.13,0.19,0.18
NS(=O)(=O)OC[C@@H]1C[C@@H](n2ccc3c(N[C@H]4CCc5ccccc54)ncnc32)C[C@@H]1O [MLN-4924],1.78,7.09,1.31,8.59,3.68,2.90,9.15,0.46,3.55,0.94,6.73,,,15.10,2.83
Nc1ccccc1NC(=O)c1ccc(CNC(=O)OCc2cccnc2)cc1 [MS-275],,,,,,,,9.37,8.44,7.69,8.10,11.70,7.83,9.25,
C/C=C1\NC(=O)[C@H]2CSSCC/C=C/[C@H](CC(=O)N[C@H](C(C)C)C(=O)N2)OC(=O)[C@H](C(C)C)NC1=O [Romidepsin],,,,,,,,6.74,,,5.71,9.27,5.84,7.26,
CNC(=O)c1cc(Oc2ccc(NC(=O)Nc3ccc(Cl)c(C(F)(F)F)c3)cc2)ccn1 [Sorafenib],1.16,,0.69,2.32,,,2.10,2.51,1.65,1.18,0.56,1.55,,,0.00
